These results are taken from US9067894B1, “Compound, composition, and method of activating GIRK potassium channel and use of same for treating conditions of interest” (Vanderbilt University, priority 2013, dated 2015).

For orientation: % Inhibition means the change of the read-out against control, counted positive when it falls. Low readings indicate a weak effect, high ones a strong effect. By EC50 is commonly meant the concentration that produces a half-maximal response. One may read the inhibition as the relative decrease from the control value, in per cent. A lower inhibition goes with a response near the control.

Entries after “also recorded” stand apart in the source; their conditions may differ.

One series relates to Imidazoline, I2. Description: Radioligand displacement (Ricerca). It is filed as binding, rat. The following applies: 10 μM. (Loss of bound radioactivity is the signal in a displacement assay; it reports binding, not function.)
Series [1] can be described thus: Home cage locomotor activity (SmartCage). The format is in vivo, mouse. The following applies: mice, 60 mg/kg i.p., 24 hours after injection. The procedure:
The SmartCageTM system ([…], Inc., Burlingame, Calif.) was used to assess compound effects on spontaneous homecage activity. Automated data analysis was performed using CageScoreTM software ([…], Inc.). The home cage activity was determined by beam breaks (x, y, and z photo-beam break counts). Distance traveled in centimeters was obtained from the lower horizontal sensors (x and y) taking into account the path taken. Average velocity was distance traveled/second in the forward direction, averaged over the block time (bin). Mice (male C57/BL6, 8-10 months old, approximately 30 g) mice were assessed continuously for 72 hours. The first 24 hours was used as a habituation period. The locomotion data obtained from the second 24 hours served as the baseline data for each mouse. […] After receiving their respective treatments, each mouse's locomotor activity was monitored over the 24 hours to assess recovery from drug effects.

The target in a further series is T1, GIRK2 (Homo sapiens, UniProt P48051).
T1 construct: expressed in transfected cells; host or cells: HEK-293
T1 sequence (P48051 1-423): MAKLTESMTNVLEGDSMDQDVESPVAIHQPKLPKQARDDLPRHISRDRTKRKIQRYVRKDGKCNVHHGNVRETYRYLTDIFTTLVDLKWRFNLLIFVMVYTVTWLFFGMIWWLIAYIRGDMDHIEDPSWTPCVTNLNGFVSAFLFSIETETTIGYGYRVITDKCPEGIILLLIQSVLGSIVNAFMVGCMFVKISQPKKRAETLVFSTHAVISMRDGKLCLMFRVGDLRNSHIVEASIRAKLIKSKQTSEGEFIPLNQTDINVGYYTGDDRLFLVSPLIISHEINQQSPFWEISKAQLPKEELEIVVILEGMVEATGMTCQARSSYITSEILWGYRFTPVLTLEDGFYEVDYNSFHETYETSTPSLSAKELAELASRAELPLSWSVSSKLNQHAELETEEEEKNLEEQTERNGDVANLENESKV
Description: Thallium flux assay, HEK-293 cells expressing GIRK2 alone. It is filed as cell-based. The following applies: cell line GIRK2. The source says: (§1) Cell Line Construction and Cell Culture. HEK-293 cells co-expressing human GIRK1/2 and rat mGlu8 were generated as previously described (Niswender et al., 2008). A HEK-293 cell line (ATCC, Manassas, Va.) expressing human GIRK1 and human GIRK2 was constructed by transfecting HEK-293 cells with GIRK1 and GIRK2 (Origene, Rockville, Md.) cloned into the pBudCE4.1 vector (Life Technologies, Carlsbad, Calif.) using FuGene 6 (Promega, Madison, Wis.) transfection reagent. Unless otherwise noted, other ion channel-expressing cells were prepared by transfecting HEK-293 cells with individual or combinations of subunits: GIRK1, pCMV6-A-BSD; GIRK2, pCMV6-A-puro; GIRK3, pCMV6-A-hygro; GIRK4, pCMV6-A-AC; Kv7.4, pIRESneo3. The Kir2.1 and hERG-expressing cell lines were made by transfecting T-REx-293 cells (Life Technologies, Carlsbad, Calif.) with Kir2.1 and Kv11.1, respectively, cloned into pcDNA5TO. Monoclonal cell lines were produced by limiting-dilution cloning of antibiotic-resistant cells and functional selection using the thallium flux assay described below. Unless otherwise noted, cells were maintained in Minimal Essential Medium, Alpha Medium (Mediatech, Manassas, Va.) supplemented with 10% fetal bovine serum (Sigma-Aldrich, Saint Louis, Mo.) and GlutaGro (Mediatech, Manassas, Va.), referred to henceforth as cell culture medium. […]

For the next series, the target named is T2, GIRK1/3 (Homo sapiens, UniProt P48549+Q92806).
T2 construct: expressed in transfected cells; host or cells: HEK-293
Description: Thallium flux assay, HEK-293 cells expressing GIRK1/3. The following applies: cell line GIRK1-3; average ± SEM. The format is cell-based.
From the text: as §1

The target of another series is T3, Dopamine D3 (Homo sapiens, UniProt P35462).
T3 construct: Ricerca
Put plainly: Radioligand displacement (Ricerca). The format is binding.

T2 sequence (P48549 whole entry): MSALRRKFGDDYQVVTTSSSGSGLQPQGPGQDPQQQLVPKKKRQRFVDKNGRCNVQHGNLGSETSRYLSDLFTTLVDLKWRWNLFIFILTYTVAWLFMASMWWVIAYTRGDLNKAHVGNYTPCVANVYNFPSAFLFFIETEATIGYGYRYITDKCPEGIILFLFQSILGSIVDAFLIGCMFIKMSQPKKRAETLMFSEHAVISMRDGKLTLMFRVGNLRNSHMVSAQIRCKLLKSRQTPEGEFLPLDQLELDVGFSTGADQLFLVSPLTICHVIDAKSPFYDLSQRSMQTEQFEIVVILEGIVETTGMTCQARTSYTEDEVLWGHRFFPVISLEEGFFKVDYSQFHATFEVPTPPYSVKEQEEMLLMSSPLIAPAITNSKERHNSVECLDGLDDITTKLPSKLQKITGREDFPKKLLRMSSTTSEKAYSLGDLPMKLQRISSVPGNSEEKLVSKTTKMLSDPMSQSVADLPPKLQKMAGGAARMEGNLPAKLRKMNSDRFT
T2 sequence (Q92806 whole entry): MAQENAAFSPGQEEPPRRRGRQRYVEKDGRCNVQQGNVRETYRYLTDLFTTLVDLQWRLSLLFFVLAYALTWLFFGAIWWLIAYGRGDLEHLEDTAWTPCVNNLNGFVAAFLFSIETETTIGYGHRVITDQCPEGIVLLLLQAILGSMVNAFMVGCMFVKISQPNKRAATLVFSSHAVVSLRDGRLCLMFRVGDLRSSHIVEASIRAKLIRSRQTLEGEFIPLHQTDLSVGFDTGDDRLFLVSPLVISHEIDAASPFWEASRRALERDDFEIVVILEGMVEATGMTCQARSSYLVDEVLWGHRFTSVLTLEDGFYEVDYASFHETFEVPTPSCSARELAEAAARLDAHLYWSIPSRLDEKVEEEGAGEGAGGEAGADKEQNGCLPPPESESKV
T3 sequence (P35462 whole entry): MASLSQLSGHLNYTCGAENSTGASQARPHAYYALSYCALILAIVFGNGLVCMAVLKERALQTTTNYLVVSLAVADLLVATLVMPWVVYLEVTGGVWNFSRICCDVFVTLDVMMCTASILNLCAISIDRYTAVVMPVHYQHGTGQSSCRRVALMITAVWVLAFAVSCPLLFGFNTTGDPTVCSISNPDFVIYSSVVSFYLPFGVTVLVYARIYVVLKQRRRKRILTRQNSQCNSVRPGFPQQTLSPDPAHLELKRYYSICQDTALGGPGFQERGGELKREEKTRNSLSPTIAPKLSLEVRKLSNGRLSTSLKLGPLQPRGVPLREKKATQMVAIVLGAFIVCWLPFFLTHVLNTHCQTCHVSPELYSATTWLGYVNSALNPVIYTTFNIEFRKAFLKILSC

Turning to `Cc1cc(NC(=O)Nc2ccc(F)c(F)c2)n(-c2ccccc2)n1` [VU0456810, 1-(3,4-difluorophenyl)-3-(3-methyl-1-phenyl-1H-pyrazol-5-yl)urea], the “% Inhibition” value in the series on Imidazoline, I2 worked out at 20%. In addition, the “locomotor activity in home cage vs vehicle” value in series [1] was “overall decrease in locomotor activity; also recorded: decreased”. The “EC50 Thallium Flux” value at GIRK2 was “complete inability to modulate; also recorded: Inactive”; on GIRK2 (listed as 2) it was “inactive”; at GIRK1/3, “able to activate”. Further, the EC50 at GIRK1/3 was determined as 914 ± 264 nM. The compound also gave an inhibition at 10 µM at Dopamine D3 of 2%.
